Laboratory results: patent US20220259202A1, “1-(4-(AMINOMETHYL)BENZYL)-2-BUTYL-2H-PYRAZOLO[3,4-C]QUINOLIN-4-AMINE DERIVATIVES AND RELATED COMPOUNDS AS TOLL-LIKE RECEPTOR (TLR) 7/8 AGONISTS, AS WELL AS ANTIBODY DRUG CONJUGATES THEREOF FOR USE IN CANCER THERAPY AND DIAGNOSIS” (SUTRO BIOPHARMA, INC., priority 2019, published 2022)

How the values were obtained:
KB cells = assay: In vitro cytotoxicity, cell proliferation assay (Cell Titer-Glo); format: cell-based; conditions: concentration up to 1 μM, 120 hrs
Description: The cytotoxicity of Compound 1 was tested in a cell proliferation assay on KB cells. KB cells were obtained from ATCC and were maintained in Ham's F-12: high glucose DMEM (50:50) (Corning) supplemented with 10% heat-inactivated fetal bovine serum (Corning), 1% Penicillin/Streptomycin (Corning) and 2 mmol/L-glutamax (Thermo Fisher Scientific). One day before the assay, KB cells were harvested with Accutase and a total of 625 cells were seeded in each well of a 384-well flat bottom white polystyrene plate. Compound 1 was formulated at 2-fold starting concentration in the cell culture medium. Serial dilutions of Compound 1 (1:4 serial dilution starting from 1000 nM) was added into treatment wells. Assay plates were cultured at 37° C. in a CO2 incubator for 120 hrs before assay. For cell viability measurement, 30 μL of Cell Titer-Glo® reagent (Promega Corp. Madison, Wis.) was added into each well, and plates were processed as per product instructions. Relative luminescence was measured on an ENVISION® plate reader (Perkin-Elmer; Waltham, Mass.). Relative luminescence readings were converted to percent viability using untreated cells as controls. Data was fitted with non-linear regression analysis, using a log(inhibitor) vs. response-variable slope, 4-parameter fit with GraphPad Prism (GraphPad v 5.0, Software; San Diego, California).

human PBMCs = assay: Compound-induced immune cell activation (CD86 expression, flow cytometry); format: cell-based; conditions: monocytes, B cells, cDCs and pDCs (FIG. 1A-1D); 48 hr
Text: This example evaluates the ability of Compound 1 to stimulate the activation of different immune cells populations (monocyte, B cell, and DCs) in human PBMCs (Peripheral blood mononuclear cells), cyno PBMCs and mouse splenocytes. Compound A, above, and resiquimod, below, were used as controls in this assay
Peripheral blood mononuclear cells (PBMCs) were isolated from fresh collected blood from two healthy human donors and two cynomolgus monkey donors using Leukosep tube and Nycoprep 1.077 buffer according to the manufacture's recommendation. Mouse splenocytes were isolated from C57/BL6 mouse spleens by macerating and straining over a 70 μm cell strainer. Isolated PBMCs or splenocytes were then frozen done using frozen medium. On the day of the assay, PBMCs or splenocytes were thawed and cultured in PBMC culture medium (RPMI supplemented with 10% heat-inactivated fetal bovine serum from Hyclone, 1% Penicillin/Streptomycin and 2 mmol/L-glutamax). 300k of PBMC or splenocytes in 50 μL of culture medium were seeded in 96-well cell culture plates. 50 μL of the test articles (formulated at 2× of starting concentration, 1:4 serial dilution) were then added into the well. The cell mixtures were co-cultured in the presence of test articles and 10 pg/mL LPS-RS for 48 hr and collected by Accutase. […] Cells were washed, fixed with 2% PFA overnight, and read on the Attune NxT cytometer (Thermo Fisher). […]

cyno PBMCs = assay: Compound-induced cytokine release (ELISA); format: cell-based, cynomolgus monkey; conditions: IL-6 and MCP-1 (FIG. 5A-5B); 48 hr
Description: This example evaluates the ability of Compound 1 to induce cytokine release in human PBMCs, cyno PBMCs and mouse splenocytes. Compound A and resiquimod, above, were used as controls in the assays.
Human and cyno PBMCs, mouse splenocytes were isolated as described in previous example. On the day of the assay, 300k of PBMC or splenocytes in 50 μL of culture medium were seeded in 96-well cell culture plates. 50 μL of the test articles (formulated at 2× of starting concentration) were then added into the well. The cell mixtures were co-cultured in the presence of test articles and 10 μg/mL LPS-RS for 24 hrs (human PBMCs) or 48 hr (cyno PBMCs and mouse splenocytes). Released cytokines in cell culture medium were measured by ELISA.

Q: What does the source list for `CCCCn1nc2c(N)nc3ccccc3c2c1Cc1ccc(CN)cc1` [Compound 1, 1-(4-(aminomethyl)benzyl)-2-butyl-2H-pyrazolo[3,4-c]quinolin-4-amine]?
A: cytotoxicity on KB cells (KB cells): did not show any cytotoxicity; activation of immune cells in human PBMCs (human PBMCs): very potent in activating; cytokine release from cyno PBMCs (cyno PBMCs): stimulated strong
